Reference: PMC4459817, “Vasculotide reduces endothelial permeability and tumor cell extravasation in the absence of binding to or agonistic activation of Tie2” (EMBO Molecular Medicine, 2015)

System: Tie2+ ECs (HMVEC-LBl)
Test: MTS cell viability assay, endothelial cells
Format: cell-based, human
Details: for IC50: Homo sapiens, Endothelial cell, 48 h, SU in MTS viability assay, predetermined from dose-response curves, cell line of IC50 not clearly printed
Method: TCs were cultured in DMEM High Glucose basal media supplemented with 5% FBS and grown humidified incubators at 37 °C, 21%O2 and 5%CO2 unless otherwise specified. LM2-4 luc is a highly metastatically aggressive variant of the human breast carcinoma MDA-MB-231 cell line (derived through serial in vivo selection of lung metastases from orthotopic implantations in immunodeficient mice) that has been transfected with a firefly luciferase vector (Man et al, 2007; Ebos et al, 2009). HT29luc is a human colon carcinoma cell line also transfected with the luciferase gene (Hackl et al, 2013). SN12luc refers to a luciferase-tagged and highly metastatic clone of a human renal cell carcinoma cell line, SN12-PM6-L1luc (Jedeszko et al, 2015). MeWo is a human melanoma cell line (Ebos et al, 2009).
2. Endothelial cells (ECs)
ECs were grown in humidified incubators at 37 °C, 21%O2 and 5%CO2 unless otherwise specified.
Primary human microvascular ECs derived from adult lung blood vessels (HMVEC-LBl, Lonza CC-2815 or HLMEC ) or neonatal dermal blood vessels (HMVEC-DBl, Lonza CC-2813 or HDMEC) were grown in EBM-2 basal media (Lonza CC-3156), supplemented with EGM-2-MV growth factors (Lonza CC-4147, which includes 5% FBS and 2 ng/mL VEGF). Primary human umbilical vein ECs (HUVECs) were grown on 1% gelatinized plates in F12K media, supplemented with 10% FBS, 0.1 mg/mL heparin sodium, 10 ng/mL EGF, 10 ng/mL VEGF, 5 ng/mL bFGF and penicillin + streptomycin + 2mM L-glutamine (P/S/Glut). Transformed human EA.hy926 and murine MS1 ECs were grown in DMEM + 10% FBS + P/S/Glut (+ HAT for EA.hy926).
3. […]
5,000 LM2-4luc or HMVEC-LBl cells, in 100uL of their regular growth media, were seeded per well on a 96-well plate. […] Absorbances were read at 490nm and background-corrected with reference 560nm readings or acellular treatment-only […]
4. […] Protein concentrations in TC-CM vs. control media were measured using: a Quantikine ELISA kit (R&D Systems DVE00) for human VEGF; a FlowCytomix Multiplex kit (eBioscience BMS810FF) for human IL-6 and IL-8; and a BCA protein assay kit (Thermo Scientific) for total protein.

Compound | IC50 ('VEGF-rich' media (0.5% FBS + 50 ng/mL VEGF)) [µM] | IC50 ('normal' media (5% FBS)) [µM] | interference with SU inhibition of ECs (48 h MTS, VT + SU, Supplementary Fig S2)
CCN(CC)CCNC(=O)c1c(C)[nH]c(/C=C2\C(=O)Nc3ccc(F)cc32)c1C [sunitinib, reference compound] | 5 | 2 | –
CHHHRHSF [Vasculotide, 4-armed maleimide-functionalized polyethylene glycol (PEG) backbone to link together four cysteine-capped T7 peptides, that is, CHHHRHSF] | – | – | did not interfere with SU inhibition of Tie2^+ ECs
